Converted amounts (≈) assume the structure as drawn. Read-outs that look alike come from different tables or passages of the source. Residues, ends and D or L forms follow the SMILES beside them. *: point of attachment. Palmitoyl = CCCCCCCCCCCCCCCC(=O)*
Columns and labels:
A. baumannii DBM 3183 = experiment: microbe, parasite or virus in culture; format: cell-based, Acinetobacter baumannii; conditions: for IC50: DBM 3183, 25 h
Protocol: (§1) A Bioscreen C automated microbiology growth curve analysis system (Growth Curves, Piscataway, NJ, USA) was used for the quantitative determination of antimicrobial activity (minimal inhibitory concentration, MIC) of PAL/LCA-peptides. Optical density was measured with a wide bandpass filter (wavelength range 420–580 nm) at regular intervals and temperatures. This assay was performed in a special microtiter plate (10 × 10 wells) that allowed the simultaneous testing of a large number of samples against several microorganisms. The total testing volume was 100 µL, obtained by mixing 10 µL of microbial culture with OD600 equal to 0.1 with growth medium and a solution of the tested compounds. The positive controls were vancomycin and tetracycline for Bacillus subtilis (100 µg/mL) for Gram-positive bacteria, kanamycin, and tetracycline for Acinetobacter baumannii (100 µg/mL) for Gram-negative bacteria, and clotrimazole or amphotericin (100 µg/mL) for fungi. The maximal concentration of tested lipoproteins was 1 mg/mL. A pure growth medium was used as the negative control. The measurement period was 25 h. The lowest concentration with a 100% inhibition effect for 24 h of incubation was chosen as the MIC. The antibacterial activity of each compound was expressed as the minimum inhibitory concentration MIC (MIC is the lowest concentration of the compound needed to inhibit the growth of bacterial cells) and IC50 (IC50 is the concentration of the compound needed to inhibit the growth of bacterial cells by 50%).

Staph. aureus MRSA1 = format: cell-based, Staphylococcus aureus; conditions: for MIC: 24 h; for IC50: 25 h
Protocol: as §1

Staph. aureus DBM 3002 = format: cell-based, Staphylococcus aureus; conditions: for IC50: 25 h
Protocol: as §1

B. subtilis DBM 3006 = format: cell-based, Bacillus subtilis; conditions: for IC50: DBM 3006, 25 h
Protocol: as §1

E. coli DBM 3001 = format: cell-based; conditions: for IC50: DBM 3001, 25 h
Protocol: as §1

E. faecalis DBM 3075 = format: cell-based; conditions: DBM 3075, 25 h
Protocol: as §1

HepG2 = experiment: Cytotoxicity assay (xCELLigence impedance); format: cell-based, human; conditions: 24 h exposure
Protocol: (§2) Experiments were carried out using an xCELLigence RTCA DP Instrument (Roche Diagnostics GmbH, Mannheim, Germany) which was placed into an incubator (37 °C and 5% CO2). Cell proliferation and cytotoxicity experiments were performed using modified 16-well plates (E-plate, Roche Diagnostics GmbH, Mannheim, Germany). Microelectrodes were attached to the bottom of the wells for the impedance-based detection of attachment, spreading, and proliferation of the cells (Stoddart [2011]). This system monitors cellular events in real time without the incorporation of labels by measuring electrical impedance across an interdigitated microelectrode integrated into the bottom of this special tissue culture plate. This impedance measurement improves upon conventional endpoint assays and provides quantitative information about the biological status of the cells, including cell number, adhesion, viability, and morphology. Ninety microliters of cultivation medium was used for the blank sample, and subsequently, 100 µL of HepG2 or HEK293T cell suspension (7 × 10^5 cells/mL) was added and placed into the incubator (37 °C, 95% humidity, 5% CO2). […] Chrysophsin-3 at a concentration of 100 µg/mL was used as a positive control and solvent (deionized water) as a negative control. Subsequent incubation was performed for at least an additional 24 h. The result of the measurement was viability curves. After the measurement, percentages of tissue culture growth inhibition were calculated for all the tested substances, as follows: %inhibition=(1-(ΔϕCIsample)/(ΔϕCIcontrol))·100
(§3) Δ∅CIsample … the difference between the first and last average CI (cell index) values of the tissue culture in the presence of the tested sample.
(§4) Δ∅CIcontrol … the difference between the first and last average CI values of the tissue culture itself.

HEK293T = experiment: Cytotoxicity assay (xCELLigence impedance); format: cell-based, human; conditions: 24 h exposure
Protocol: as §2, §3, §4

Ps. aeruginosa DBM 3081 = format: cell-based, Pseudomonas aeruginosa; conditions: for IC50: 25 h
Protocol: as §1

M. luteus DBM 3053 = format: cell-based, Micrococcus luteus; conditions: for MIC: DBM 3053, 24 h; for IC50: DBM 3053, 25 h
Protocol: as §1

C. tropicalis DBM 2166 = format: cell-based, Candida tropicalis; conditions: DBM 2166, 25 h
Protocol: as §1

plasmid pGreen 0029 = experiment: DNA binding assay (gel retardation); conditions: circular or linearized forms, tested ratios
Protocol: This assay was performed as described by Park et al. ([1998]), with a few modifications. […] The reaction mixture was incubated at room temperature for 1 h. Subsequently, 4 µL of native loading buffer (10% Ficol, 10 mM Tris–HCl (pH 7.5), 50 mM EDTA, 0.25% bromophenol blue) was added. An aliquot was applied to 1% agarose gel electrophoresis in 0.5xTris borate-EDTA buffer. Circular plasmid DNA was isolated from (Luria–Bertani medium with AMPI in final concentration 100 µg/mL) bacterial strain E. coli DH5α / pBluescriptII KS- that had been grown overnight, and linearization was performed overnight by enzymatic reaction using restriction endonuclease EcoRV at 37 °C. The evaluation was performed by visualizing the DNA with the intercalation dye Midori Green Advanced DNA Stain under UV light. Reduced electrophoretic mobility compared to the control is considered to be evidence of peptide binding to DNA.
According to the previous results, we decided to clarify one of the possible molecular interaction mechanisms, the ability of the studied lipopeptides to bind microbial plasmid DNA. Based on the assumption that pore formation is only one of the influencing factors, which arose from previous results, the effect on one of the possible intracellular targets, DNA, was determined. This determination was carried out on isolated plasmid DNA, specifically on two plasmids, pGreen 0029 and pBluescript II KS- in circular and linearized form.

[1] = tested on: all the tested microorganisms; experiment: Microtitre dilution screening at 1 mg/mL; format: cell-based; conditions: c = 1 mg/mL, microtitre dilution method
Protocol: as §1

CCCCCCCCCCCCCCCC(=O)N[C@@H](CC(C)C)C(=O)N[C@H](C(=O)N[C@@H](CCCCN)C(=O)NCC(=O)N[C@@H](C)C(=O)N[C@@H](CCCNC(=N)N)C(N)=O)C(C)C [SHP-2.2, PAL-LVKGAR-NH2] (Palmitoyl-LVKGAR-NH2)
IC50 (A. baumannii DBM 3183): N / > 100.0 µg/mL | MIC (Staph. aureus MRSA1): 14.9 µg/mL (≈ 16.9 µM) | IC50 (Staph. aureus MRSA1): 25.0 µg/mL (≈ 28.4 µM) | IC50 (Staph. aureus DBM 3002): N / > 100.0 µg/mL | IC50 (B. subtilis DBM 3006): N / > 100.0 µg/mL | IC50 (E. coli DBM 3001): N / > 100.0 µg/mL | IC50 (E. faecalis DBM 3075): N / > 100.0 µg/mL | % inhibition (HepG2; c 50 µg/mL): 4.3 ± 0.6% | % inhibition (HepG2; c 100 µg/mL): 11.4 ± 1.7% | % inhibition (HepG2; c 200 µg/mL): 18.5 ± 2.8% | % inhibition (HEK293T; c 50 µg/mL): 11.1 ± 1.7% | % inhibition (HEK293T; c 100 µg/mL): 19.3 ± 2.9% | % inhibition (HEK293T; c 200 µg/mL): 28.6 ± 4.3% | IC50 (Ps. aeruginosa DBM 3081): N / > 100.0 µg/mL | MIC (M. luteus DBM 3053): 7.0 µg/mL (≈ 7.95 µM) | IC50 (M. luteus DBM 3053): 10.0 µg/mL (≈ 11.4 µM) | IC50 (C. tropicalis DBM 2166): N / > 100.0 µg/mL

CCCCCCCCCCCCCCCC(=O)NCC(=O)N[C@H](C(=O)N[C@@H](CC(C)C)C(=O)N[C@@H](CCCCN)C(=O)N[C@@H](CCCNC(=N)N)C(=O)N[C@@H](C)C(N)=O)C(C)C [SHP-3.2, PAL-GVLKRA-NH2] (Palmitoyl-GVLKRA-NH2)
IC50 (A. baumannii DBM 3183): N / > 100.0 µg/mL | MIC (Staph. aureus MRSA1): 6.8 µg/mL (≈ 7.73 µM) | IC50 (Staph. aureus MRSA1): 12.5 µg/mL (≈ 14.2 µM) | MIC (Staph. aureus DBM 3002; 24 h): 8.6 µg/mL (≈ 9.77 µM) | IC50 (Staph. aureus DBM 3002): 30.0 µg/mL (≈ 34.1 µM) | MIC (B. subtilis DBM 3006; DBM 3006, 24 h): 41.1 µg/mL (≈ 46.7 µM) | IC50 (B. subtilis DBM 3006): 50.0 µg/mL (≈ 56.8 µM) | influence on electrophoretic mobility of plasmid DNA (plasmid pGreen 0029): did not exhibit any influence | MIC (E. coli DBM 3001; DBM 3001, 24 h): 68.7 µg/mL (≈ 78 µM) | IC50 (E. coli DBM 3001): 100.0 µg/mL (≈ 114 µM) | IC50 (E. faecalis DBM 3075): N / > 100.0 µg/mL | % inhibition (HepG2; c 50 µg/mL): 17.0 ± 2.6% | % inhibition (HepG2; c 100 µg/mL): 20.7 ± 3.1% | % inhibition (HepG2; c 200 µg/mL): 23.2 ± 3.5% | % inhibition (HEK293T; c 50 µg/mL): 4.1 ± 0.6% | % inhibition (HEK293T; c 100 µg/mL): 29.6 ± 4.4% | % inhibition (HEK293T; c 200 µg/mL): 0.0 ± 0.3% | MIC (Ps. aeruginosa DBM 3081; 24 h): 83.6 µg/mL (≈ 95 µM) | IC50 (Ps. aeruginosa DBM 3081): 100.0 µg/mL (≈ 114 µM) | MIC (M. luteus DBM 3053): 5.8 µg/mL (≈ 6.59 µM) | IC50 (M. luteus DBM 3053): 10.0 µg/mL (≈ 11.4 µM) | IC50 (C. tropicalis DBM 2166): N / > 100.0 µg/mL

NC[C@H]1O[C@H](O[C@H]2[C@H](O)[C@@H](O[C@H]3O[C@H](CO)[C@@H](O)[C@H](N)[C@H]3O)[C@H](N)C[C@@H]2N)[C@H](O)[C@@H](O)[C@@H]1O [kanamycin, reference compound]
MIC (Ps. aeruginosa DBM 3081; first value of cell 'MIC / IC50', 100% inhibition for 24 h): 20 µg/mL (≈ 41.3 µM)

CN(C)[C@@H]1C(O)=C(C(N)=O)C(=O)[C@@]2(O)C(O)=C3C(=O)c4c(O)cccc4[C@@](C)(O)[C@H]3C[C@@H]12 [tetracycline, reference compound]
MIC (A. baumannii DBM 3183; Acinetobacter baumannii, DBM3183, first value of cell 'MIC / IC50', lowest concentration with 100% inhibition for 24 h, 100 µL, OD 420–580 nm): 10 µg/mL (≈ 22.5 µM)

GVLKRA-NH2 [SHP-3.1]
growth inhibition / activity in screening [1]: low activity | growth inhibition (B. subtilis DBM 3006; c = 1 mg/mL): One hundred percent

LVKGAR-NH2 [SHP-2.1, primary hexapeptide with C-terminal amidation]
growth inhibition / activity in screening [1]: low activity

LVKRAG-NH2 [SHP-1.1, primary hexapeptide with C-terminal amidation]
growth inhibition / activity in screening [1]: low activity | growth inhibition (Staph. aureus DBM 3002; c = 1 mg/mL, Staphylococcus aureus, strain not stated): One hundred percent | growth inhibition (M. luteus DBM 3053; c = 1 mg/mL): One hundred percent

Source: article PMC11003925, “Antimicrobial activity and properties of de novo design of short synthetic lipopeptides” (Folia Microbiologica, 2024)
